We go through one compound from patent publication US20240125768A1, “METHODS FOR MODULATING A SRC-1 CONDENSATE” (ETERN BIOPHARMA (SHANGHAI) CO., LTD., priority 2021, published 2024).

For this assay, the system named is SRC-1's binding with YAP and TEAD. The assay can be described thus: FLAG pulldown assay with recombinant proteins. The settings on record: in vitro pulldown, concentrations up to 400 μM. The protocol: FIG. 7N illustrates purified Flag-SRC-1 protein was mixed with YAP and/or TEAD4 in the presence of increasing concentrations of EVG and was subjected to three independent pull-downs using anti-flag beads.
Three independent pull down assays were performed to detect the direct binding between SRC1 and YAP/TEAD4. Purified FLAG-SRC1 truncated proteins were incubated with YAP, TEAD4 and YAP plus TEAD4 respectively, and further subjected to pull down assays by ANTI-FLAG® M2 Affinity Gel (A2220, Sigma-Aldrich). Elvitegravir was co-incubated with the mixtures at increasing concentrations (0, 50, 200, 400 μM) as indicated. Complexes were washed in PBS buffer and proteins were eluted using 2×SDS loading buffer.

As for `COc1cc2c(cc1Cc1cccc(Cl)c1F)c(=O)c(C(=O)O)cn2[C@H](CO)C(C)C` [EVG, 6-[(3-chloro-2-fluorophenyl)methyl]-1-[(2S)-1-hydroxy-3-methylbutan-2-yl]-7-methoxy-4-oxoquinoline-3-carboxylic acid], the “SRC-1's binding with YAP and TEAD” value is listed as “did not affect”.
